Paper PMC6274355, “Synthesis and Anti-HIV-1 Activity Evaluation for Novel 3a,6a-Dihydro-1H-pyrrolo[3,4-c]pyrazole-4,6-dione Derivatives” (Molecules, 2016)
Where two headings read alike, the source gives them in different places.

Legend:
C8166 cells = assay: Cytotoxicity assay (MTT); assay type: cell-based
Description: (§1) The cytotoxicty assay was performed by 3-(4,5-dimethylthiazol-2-yl)-2,5-diphenyl tetrazoliumbromide (MTT) method. Briefly, 100 μL 4 × 10^4 C8166 cells were seeded each well with 100 μL of different concentrations of compounds in a 96-well plate. The plate was incubated 72 h at 37 °C, 5% CO2 incubator. MTT (20 μL, 5 mg/mL) was added to each well and the plate was incubated at 37 °C for 4 h. Supernatant (100 μL) was discarded and 20% SDS-50% DMF (100 μL) was added. The plates were read at 570/630 nm by a Bio-Tek Elx 800 reader (Bio-Tek Instruments, Inc., Winooski, VT, USA). The 50% cytotoxic concentration (CC50) was calculated.

HIV-1IIIB = assay: Syncytia inhibition assay (HIV-1IIIB infected C8166 cells); assay type: cell-based; details: for TI (in vitro therapeutic index, CC50 value/EC50 value): CC50 in C8166 cells / EC50 syncytia inhibition; for EC50: HIV-1IIIB infected C8166 cells, 72 h, means of two separate experiments, read-out: EC50 (50% effective concentration, reduces syncytia formation by 50%)
Description: Target compounds 6–16 were evaluated for their inhibitory activity against HIV-1 replication in acutely infected C8166 cells in vitro according to the previously described method, and AZT was used as a positive control. The assay results of the target compounds are presented in Table 1 and Table 2, expressed as CC50, EC50 and therapeutic index (TI).
The syncytia inhibition assay was applied by counting syncytia which were formed by HIV-1IIIB infected C8166 cells. Briefly, HIV-1IIIB supernatant and C8166 cells were seeded in a 96-well plate with different concentration of compounds. The plate was incubated in a 37 °C, 5% CO2 incubator for 72 h. Syncytia were counting under an inverted microscope and 50% effective concentration (EC50) was calculated. Therapeutic index (TI) was calculated by the ratio of CC50/EC50.

Cytotoxicity assay (MTT) = assay type: cell-based; details: human; C8166 cells, MTT, 72 h; means of two separate experiments; read-out: CC50 (50% cytotoxic concentration)
Description: as §1

HIV = system: HIV; design: method as in earlier work; details: Figure 1; cited from earlier work
[1] = Human immunodeficiency virus 1, C8166, 72 h

For “3-(2,3-Dihydroxyphenyl)-1-(4-fluorophenyl)-5-[2-(4-fluorophenyl)ethyl]-3a,6a-dihydro-1H-pyrrolo[3,4-c]pyrazole-4,6-dione [10b]”, the CC50 (C8166 cells) was 0.189 mM, the “TI (in vitro therapeutic index, CC50 value/EC50 value)” value (HIV-1IIIB) was 39.85 and the EC50 (HIV-1IIIB) was 4.73 µM.
For `COc1cccc(C2=NN(c3ccccc3)C3C(=O)N(CCc4ccc(F)cc4)C(=O)C23)c1O` (centres unmarked) [15h, 5-[2-(4-Fluorophenyl)ethyl]-3-(2-hydroxy-3-methoxyphenyl)-1-phenyl-3a,6a-dihydro-1H-pyrrolo[3,4-c]pyrazole-4,6-dione], the CC50 at 72 h (Cytotoxicity assay (MTT)) was over 436 µM, the “TI (in vitro therapeutic index, CC50 value/EC50 value)” value (HIV-1IIIB) was over 15.22 and the EC50 (HIV-1IIIB; [1]) was 28.6 µM.
In the case of `COc1cccc(C2=NN(c3ccc(C)cc3)C3C(=O)N(CCc4ccc(F)cc4)C(=O)C23)c1O` (centres unmarked) [15i, 5-[2-(4-Fluorophenyl)ethyl]-3-(2-hydroxy-3-methoxyphenyl)-1-(4-methylphenyl)-3a,6a-dihydro-1H-pyrrolo[3,4-c]pyrazole-4,6-dione], the CC50 at 72 h (Cytotoxicity assay (MTT)) is reported as over 423 µM, the “TI (in vitro therapeutic index, CC50 value/EC50 value)” value (HIV-1IIIB) is reported as over 103.09 and the EC50 (HIV-1IIIB) is reported as 4.1 µM. For the same molecule, the EC50 (HIV-1IIIB; [1]) was under 5 µM.
In the case of `COc1ccc(N2N=C(c3cccc(OC)c3O)C3C(=O)N(CCc4ccc(F)cc4)C(=O)C32)cc1` (centres unmarked) [15j, 5-[2-(4-Fluorophenyl)-ethyl]-3-(2-hydroxy-3-methoxyphenyl)-1-(4-methoxyphenyl)-3a,6a-dihydro-1H-pyrrolo[3,4-c]pyrazole-4,6-dione], the CC50 at 72 h (Cytotoxicity assay (MTT)) is reported as over 409 µM, the “TI (in vitro therapeutic index, CC50 value/EC50 value)” value (HIV-1IIIB) is reported as over 19.34 and the EC50 (HIV-1IIIB; [1]) is reported as 21.1 µM.
For `COc1cccc(C2=NN(c3ccc(F)cc3)C3C(=O)N(CCc4ccccc4F)C(=O)C23)c1O` (centres unmarked) [16a, 1-(4-Fluorophenyl)-5-[2-(2-fluorophenyl)ethyl]-3-(2-hydroxy-3-methoxyphenyl)-3a,6a-dihydro-1H-pyrrolo[3,4-c]pyrazole-4,6-dione], the CC50 at 72 h (Cytotoxicity assay (MTT)) was 19.6 µM, the “TI (in vitro therapeutic index, CC50 value/EC50 value)” value (HIV-1IIIB) was 7.78 and the EC50 (HIV-1IIIB; [1]) was 2.52 µM.
For `COc1cccc(C2=NN(c3ccc(F)cc3)C3C(=O)N(CCc4cccc(F)c4)C(=O)C23)c1O` (centres unmarked) [16b, 1-(4-Fluorophenyl)-5-[2-(3-fluorophenyl)ethyl]-3-(2-hydroxy-3-methoxyphenyl)-3a,6a-dihydro-1H-pyrrolo[3,4-c]pyrazole-4,6-dione], the CC50 at 72 h (Cytotoxicity assay (MTT)) was 143 µM, the “TI (in vitro therapeutic index, CC50 value/EC50 value)” value (HIV-1IIIB) was 11.01 and the EC50 (HIV-1IIIB; [1]) was 13 µM.
In the case of `COc1cccc(C2=NN(c3ccc(F)cc3)C3C(=O)N(CCc4ccc(Cl)cc4)C(=O)C23)c1O` (centres unmarked) [16c, 5-[2-(4-Chlorophenyl)-ethyl]-1-(4-fluorophenyl)-3-(2-hydroxy-3-methoxyphenyl)-3a,6a-dihydro-1H-pyrrolo[3,4-c]pyrazole-4,6-dione], the CC50 at 72 h (Cytotoxicity assay (MTT)) is reported as 70.1 µM, the “TI (in vitro therapeutic index, CC50 value/EC50 value)” value (HIV-1IIIB) is reported as 6.73 and the EC50 (HIV-1IIIB; [1]) is reported as 10.4 µM.
In the case of `COc1cccc(C2=NN(c3ccc(F)cc3)C3C(=O)N(CCc4ccccc4)C(=O)C23)c1O` (centres unmarked) [16d, 1-(4-Fluorophenyl)-3-(2-hydroxy-3-methoxyphenyl)-5-phenethyl-3a,6a-dihydro-1H-pyrrolo[3,4-c]pyrazole-4,6-dione], the CC50 at 72 h (Cytotoxicity assay (MTT)) is reported as over 436 µM, the “TI (in vitro therapeutic index, CC50 value/EC50 value)” value (HIV-1IIIB) is reported as over 23.09 and the EC50 (HIV-1IIIB; [1]) is reported as 18.9 µM.
With `COc1ccc(CCN2C(=O)C3C(c4cccc(OC)c4O)=NN(c4ccc(F)cc4)C3C2=O)cc1` (centres unmarked) [16e, 1-(4-Fluorophenyl)-3-(2-hydroxy-3-methoxyphenyl)-5-[2-(4-methoxyphenyl)ethyl]-3a,6a-dihydro-1H-pyrrolo[3,4-c]pyrazole-4,6-dione] the CC50 at 72 h (Cytotoxicity assay (MTT)) was 219 µM, the “TI (in vitro therapeutic index, CC50 value/EC50 value)” value (HIV-1IIIB) was 2.52 and the EC50 (HIV-1IIIB; [1]) was 87.2 µM.
With `Cc1cn([C@H]2C[C@H](N=[N+]=[N-])[C@@H](CO)O2)c(=O)[nH]c1=O` [AZT, reference compound] the CC50 (C8166 cells; C8166 cells, MTT, 72 h, means of two separate experiments, read-out: CC50 (50% cytotoxic concentration)) was 3.78 mM, the “TI (in vitro therapeutic index, CC50 value/EC50 value)” value (HIV-1IIIB) was 444,588 and the EC50 (HIV-1IIIB) was 0.0085 µM.
For `CCOC(=O)c1ncc(O)c2c1C(=O)N(CCc1ccc(F)cc1)C2=O` [compound 5], the EC50 (HIV) is given as 1650 nM.
With `O=C1C2C(c3cccc(O)c3O)=NN(c3ccc(F)cc3)C2C(=O)N1CCc1ccc(F)cc1` (centres unmarked) [compound 6, 3-(2,3-Dihydroxyphenyl)-1-(4-fluorophenyl)-5-[2-(4-fluorophenyl)ethyl]-3a,6a-dihydro-1H-pyrrolo[3,4-c]pyrazole-4,6-dione] the CC50 at 72 h (Cytotoxicity assay (MTT)) was over 432 µM, the “TI (in vitro therapeutic index, CC50 value/EC50 value)” value (HIV-1IIIB) was over 16.37 and the EC50 (HIV-1IIIB; [1]) was 26.4 µM.
With `O=C1C2C(c3ccccc3O)=NN(c3ccc(F)cc3)C2C(=O)N1CCc1ccc(F)cc1` (centres unmarked) [compound 8, 1-(4-Fluorophenyl)-5-[2-(4-fluorophenyl)ethyl]-3-(2-hydroxyphenyl)-3a,6a-dihydro-1H-pyrrolo[3,4-c]pyrazole-4,6-dione] the CC50 at 72 h (Cytotoxicity assay (MTT)) was over 447 µM, the “TI (in vitro therapeutic index, CC50 value/EC50 value)” value (HIV-1IIIB) was over 44.25 and the EC50 (HIV-1IIIB; [1]) was 10.1 µM.
For `COc1cc([N+](=O)[O-])cc(C2=NN(c3ccc(F)cc3)C3C(=O)N(CCc4ccc(F)cc4)C(=O)C23)c1O` (centres unmarked) [compound 11, 1-(4-Fluorophenyl)-5-[2-(4-fluorophenyl)ethyl]-3-(2-hydroxy-3-methoxy-5-nitrophenyl)-3a,6a-dihydro-1H-pyrrolo[3,4-c]pyrazole-4,6-dione], the CC50 at 72 h (Cytotoxicity assay (MTT)) was 90.3 µM, the “TI (in vitro therapeutic index, CC50 value/EC50 value)” value (HIV-1IIIB) was 2.15 and the EC50 (HIV-1IIIB; [1]) was 41.9 µM.
In the case of `O=C1C2C(c3c(O)ccc4ccccc34)=NN(c3ccc(F)cc3)C2C(=O)N1CCc1ccc(F)cc1` (centres unmarked) [compound 13, 1-(4-Fluorophenyl)-5-[2-(4-fluorophenyl)ethyl]-3-(2-hydroxynaphthalen-1-yl)-3a,6a-dihydro-1H-pyrrolo[3,4-c]pyrazole-4,6-dione], the CC50 at 72 h (Cytotoxicity assay (MTT)) is reported as 9.03 µM, the “TI (in vitro therapeutic index, CC50 value/EC50 value)” value (HIV-1IIIB) is reported as 2.00 and the EC50 (HIV-1IIIB; [1]) is reported as 4.5 µM.
